Article PMC12169669, “Regio- and Stereoselective Synthesis of Nitro-fatty Acids as NRF2 Pathway Activators Working under Ambient or Hypoxic Conditions” (Journal of Medicinal Chemistry, 2025)

Assays:
Gclm = test: GCLM protein level in BMCs (Western blot); type: cell-based, mouse; details: 2 μM, 7 h
Text: (§1) Primary bone marrow cells (BMCs) were isolated from 8–12-week-old male C57BL/6 mice (25–30 g, AnLab, Czech Republic). Mice were housed under standard conditions. BMCs were isolated as follows: The day before isolation, phosphate-buffered saline (PBS), ACK Lysis Buffer (A10492-01, Thermo Fisher Scientific), and Iscove’s Modified Dulbecco’s Medium (IMDM) (12440-053, Thermo Fisher Scientific) were placed in a hypoxic chamber (InvivO2 400, Baker Ruskinn, UK) with adjustable oxygen control to equilibrate for the target oxygen concentrations. On the day of the experiment, animals were euthanized using ketamine/xylazine, and bilateral femurs were extracted. BMCs were flushed with hypoxic (1% O2 unless stated otherwise) PBS supplemented with 2% fetal bovine serum (FBS; low endotoxin, FB-1101/500, Biosera, France). After hemolysis at room temperature using hypoxic ACK Lysis Buffer, nucleated BMCs were washed with hypoxic PBS + 2% FBS and counted using a TC20 automated cell counter (Bio-Rad). Cells were kept under hypoxic conditions prior to treatment. The medium for BMC culture, consisting of IMDM with 2% FBS and 1% penicillin/streptomycin (LM-A4118/100, Biosera, France), was supplemented with 10 ng/mL mouse IL-3, 10 ng/mL mouse IL-6, and 50 ng/mL mouse stem cell factor - SCF (213-13, 216-16, and 250-03, respectively; all from PeproTech). Cells were cultured at 37 °C in a humidified atmosphere containing 5% CO2 and the specified oxygen concentrations (21%, 4%, or 1%).
(§2) Briefly, 1.5 × 10^6 BMCs were placed in 0.2 mL of complete medium in 1.5 mL microtubes and incubated with 2 μM NO2FAs or the control (medium only) for 1 (NRF2), 4 (heme oxygenase-1, HO-1), or 7 (glutamate-cysteine ligase modifier subunit, GCLM) hours at the specified oxygen levels (21%, 4%, or 1%). Cells were then spun down and washed with PBS (from this step onward, cells were processed under atmospheric conditions). Next, cells were lysed in 60 μL RIPA buffer (89901, Thermo Fisher Scientific) containing protease and phosphatase inhibitors cocktail (78442, Thermo Fisher Scientific). Cell lysates were sonicated and centrifuged at 15,000g for 3 min at 4 °C, and 15 μL of lane marker (3900, Thermo Fisher Scientific) was added to the supernatants. Samples were boiled for 3 min at 95 °C. Equal volumes of lysates (15–45 μL/well) were loaded onto 7–15% SDS-polyacrylamide gels. Proteins were then transferred onto PVDF membranes (IPVH85R, EMD Millipore Corp.) and blocked with 5% nonfat dry milk in TBST. Membranes were incubated overnight at 4 °C with the following primary antibodies: anti-β-actin (1:1000; #3700, Cell Signaling Technology), antivinculin (1:10,000; #SAV9264, Sigma-Aldrich), anti-NRF2 (1:500; A308758, Lot 38410, Antibodies.com, UK), anti-HO-1 (1:1000; #43966, Cell Signaling Technology), antihistone H3 (1:2000; #4499, Cell Signaling Technology), or anti-GCLM (1:100; sc-55586, Santa Cruz Biotechnology). This was followed by incubation with corresponding HRP-linked secondary antibodies (antimouse IgG, #7076, 1:1000–5000; or antirabbit IgG, #7074, 1:1000–2000; both from Cell Signaling Technology) for 1 h at room temperature. Protein bands were visualized using an enhanced chemiluminescent substrate (SuperSignal 34577/34095, Thermo Fisher Scientific). The optical densities of detected proteins were measured using ImageJ v1.52 (NIH).
4 Expression of NRF2-target proteins HO-1 and GCLM. NO 2 FA derivatives upregulate the expression of NRF2-target proteins in mouse BMCs. BMCs were cultured under 21% or 1% oxygen conditions and treated with 2 μM of the tested NO 2 FAs for 4 h (A, B) or 7 h (C, D). HO-1 (A, B) and GCLM (C, D) expression in whole-cell lysates was subsequently analyzed. Results are presented as the fold change relative to control cells across different oxygen culture conditions. Data are expressed as mean ± SD from 3–5 independent experiments (n = 3–5). […]

NRF2 = NRF2 stabilization in bone marrow cells (Western blot, whole-cell lysates); type: cell-based, mouse; details: BMCs, 2 μM, 1 h
Text: as §1, §2
2 Stabilization of NRF2 by tested NO2FA derivatives. NO 2 FA derivatives stabilize NRF2 in mouse bone marrow cells (BMCs). Nucleated BMCs were cultured under varying oxygen conditions (21%, 4%, and 1%) and treated for 1 h with 2 μM of the tested NO 2 FAs, followed by analysis of NRF2 expression in whole-cell lysates. Results are shown as the fold change relative to control cells across different oxygen culture conditions (A–C). Data are expressed as mean ± SD from 3–4 independent experiments (n = 3–4). Statistical analysis was performed using one-way ANOVA with Dunnett’s multiple comparisons test (* p < 0.05).

SMILES | GCLM protein level, fold change relative to control (Gclm; 1% oxygen) | GCLM protein level, fold change relative to control (Gclm; 21% oxygen) | NRF2 expression (stabilization), fold change relative to control (NRF2; 1% oxygen) | NRF2 expression (stabilization), fold change relative to control (NRF2; 4% oxygen) | NRF2 expression (stabilization), fold change relative to control (NRF2; 21% oxygen)
CCCCCCCC/C=C(\CCCCCCCC(=O)O)[N+](=O)[O-] [9-NO2OA, (9E)-9-Nitro-oleic Acid] | nearly the same increase | nearly the same increase | significantly increased |  | 
CCCCCC/C=C/C=C(\CCCCCCCC(=O)O)[N+](=O)[O-] [9-NO2cLA, (9E,11E)-9-Nitro Conjugated Linoleic Acid] |  |  | nonsignificant increase | nonsignificant increase | 
CCCCC/C=C\C/C(=C\CCCCCCCC(=O)O)[N+](=O)[O-] [10-NO2LA, (9E,12Z)-10-Nitro Linoleic Acid] |  | only significant at 21% oxygen |  | significantly increased | 
CCCCCCCC/C(=C\CCCCCCCC(=O)O)[N+](=O)[O-] [10-NO2OA, (9E)-10-Nitro-oleic Acid] | nearly the same increase | nearly the same increase | significantly increased |  | 
CCCCCCCCC(CCCCCCCCC(=O)O)[N+](=O)[O-] (stereo not drawn) [10-NO2SA, 10-Nitro Stearic acid] | no significant effects | no significant effects | no effect | no effect | no effect
